In data set [1] the test system is inflammatory cells in bronchoalveolar lavage fluid. Description: Inflammatory cell counts in bronchoalveolar lavage fluid (Diff-Quick staining). The class given is in vivo, Balb/c female mice. Conditions: asthma-induced mice. On the procedure: (§1) To prepare bronchial asthma-induced experimental animals, six-week-old Balb/c female mice of mean weight about 20 g were used. After one week of adaptation, individuals which had no observed abnormality on a basic physical examination were targeted. 200 μL of phosphate buffered saline (PBS)(pH 7.4) in which 2 mg of aluminum hydroxide (A8222, Sigma, St. Louis, Mo.) and 20 μg of ovalbumin (A5503, Sigma, St. Louis, Mo.) were suspended was injected into the peritoneal cavity at two-week intervals to result in sensitization. On days 28 to 30 after the first intraperitoneal administration of ovalbumin, inhalation challenge was performed for 30 min with 1% ovalbumin using an ultrasonic atomizer. 24 hours after the last antigen administration, airway hyperresponsiveness was measured. After 24 hours, a lethal dose of pentobarbital (Entobar®, Hanlim Pharm Co., Ltd.) was administered, body weight measurement and bronchotomy were performed, and bronchoalveolar lavage was performed with a total 1.2 mL of physiological saline, and then, samples were collected. […] Eight white mice were used for each group. Experimental groups for homoegonol were a group (hE7.5) in which animals were orally administered with 7.5 mg/kg homoegonol 1 hour prior to ovalbumin inhalation, a group (hE15) in which animals were orally administered with 15 mg/kg homoegonol 1 hour prior to ovalbumin inhalation, and a group (hE30) in which animals were orally administered with 30 mg/kg homoegonol 1 hour prior to ovalbumin inhalation, and five white mice were used for each group.
Bronchoalveolar lavage fluid was collected from individuals of each experimental group in <Example 2> and right after the collection, fluid was stained with trypan blue. The number of total cells except dead cells was calculated using a hemocytometer. Then, Diff-Quick staining (Sysmex, Swizerland) was performed after smear preparation with Cytospin II, and eosinophils and other inflammatory cells were differentially counted.
To examine the effect of homoegonol on asthma, variation in the numbers of asthma-related inflammatory cells was measured according to the method in <Experimental Example 3>.

For data set [2], the system named is inflammatory cells in the airway mucosa. Description: Inflammatory cell infiltration in airway mucosa, inflammatory index (H&E staining). The class given is in vivo, Balb/c female mice. Conditions: asthma-induced mice, scale 0-4.
Data set [3] has as its system ovalbumin-specific IgE. Description: IgE levels in serum and bronchoalveolar lavage fluid (ELISA). The class given is in vivo, Balb/c female mice. Conditions: asthma-induced mice, homoegonol study, 3 mg/kg PO.
Data set [4] relates to TGF-β1. Description: TGF-β1 in bronchoalveolar lavage fluid. The class given is in vivo, Balb/c female mice. The conditions noted are these: asthma-induced mice, homoegonol study; 3 mg/kg PO. On the procedure: as §1
(§2) To examine the effect of homoegonol on airway remodeling, generation of TGF-β1 and IL-17 in bronchoalveolar lavage fluid was measured.

For data set [5], the system named is alanine aminotransferase (ALT) and aspartate aminotransferase (AST) in serum. The class given is in vivo. The conditions noted are these: mouse, in vivo, po, 3 mg/kg. On the procedure: as §1
To examine liver toxicity of styraxlignolide A, a commercially available ELISA kit (BECKMAN Coulter, Inc., Fullerton, Calif., USA) was used to measure alanine aminotransferase (ALT) and aspartate aminotransferase (AST) in serum.

Data set [6] relates to fibrosis in subsegmental bronchi. Description: Fibrosis in subsegmental bronchi (Masson's trichrome staining). The conditions noted are these: asthma-induced mice, styraxlignolide A study; 3 mg/kg PO 1 hour prior to ovalbumin inhalation. The class given is in vivo, Balb/c female mice. On the procedure:
as §1

In data set [7] the test system is airway hyperresponsiveness. Description: Airway hyperresponsiveness, Penh by one chamber plethysmography after methacholine inhalation. The conditions noted are these: asthma-induced mice, homoegonol study, 3 mg/kg PO. The class given is in vivo, Balb/c female mice. As for the experimental part: as §1, with “Experimental groups for homoegonol were a group (hE7.5) in which animals were orally administered with 7.5 mg/kg homoegonol 1 hour prior to ovalbumin inhalation, a group (hE15) in which animals were orally administered with 15 mg/kg homoegonol 1 hour prior to ovalbumin inhalation, and a group (hE30) in which animals were orally administered with 30 mg/kg homoegonol 1 hour prior to ovalbumin inhalation, and five white mice were used for each group.” left out
The effect of styraxlignolide A on airway hyperresponsiveness caused by asthma occurrence was examined by measuring airway resistance with one chamber plethysmography (All medicus, Seoul, Republic of Korea) and degree of airway resistance was assessed by measuring Penh (enhanced pause) values. The baseline value was measured under a normal respiratory condition, and then, PBS was inhaled using an ultrasonic atomizer for 3 min, and Penh values were measured over 3 min. […] Louis, Mo.) which is used in general methods for diagnosis of bronchial asthma were inhaled and Penh values were measured. Penh value is shown in the following Equation 1, and the resulting Penh value was expressed as a percent increase in Penh after inhalation of each concentration of methacholine. The baseline Penh (saline challenge) was expressed as 100%.
Te: expiratory time (sec), the time from inspiration to the next inspiration
RT: relaxation time, the elapsed time between the beginning of the expiration and the moment when the remaining 30% of the tidal volume has been reached during expiration
PEF: Peak expiration flow
PIF: Peak inspiration flow
To examine the effect of homoegonol on airway hyperresponsiveness caused by asthma occurrence, Penh value was measured according to the method in <Experimental Example 2>.

Data set [8] deals with IL-17. The data set is described as follows: IL-17 in bronchoalveolar lavage fluid. The class given is in vivo, Balb/c female mice. The conditions noted are these: asthma-induced mice, homoegonol study; 3 mg/kg PO. On the procedure: as §1, §2
Data set [9] concerns inflammatory cells in bronchoalveolar lavage fluid. Description: Inflammatory cell counts in bronchoalveolar lavage fluid (Diff-Quick staining). The class given is in vivo, Balb/c female mice. Conditions: asthma-induced mice. The source holds these as a separate data set.
In data set [10] the test system is goblet cells. Description: Ratio of goblet cells to bronchial epithelial cells (PAS staining). The class given is in vivo, Balb/c female mice. Conditions: asthma-induced mice, styraxlignolide A study; 3 mg/kg PO 1 hour prior to ovalbumin inhalation. As for the experimental part:
as §1
Lungs removed from each individual were subjected to conventional formalin fixation and paraffin embedding, and permanent section slides of 4 μm thickness were prepared, and periodic acid Schiff (PAS) staining was performed to determine goblet cells. Proliferation of goblet cells was assessed by measuring the ratio of goblet cells to bronchial epithelial cells.
In accordance with the method in <Experimental Example 7-2>, the ratio of goblet cells which were determined by periodic acid-Schiff staining to bronchial epithelial cells were measured to assess proliferation of goblet cells.

The subject of data set [11] is goblet cells. The data set is described as above. The class given is in vivo, Balb/c female mice. The conditions noted are these: asthma-induced mice, homoegonol study, 3 mg/kg PO.
Data set [12] can be described thus: Body weight in asthma-induced mice. The class given is in vivo, Balb/c female mice. Conditions: 3 mg/kg PO 1 hour prior to ovalbumin inhalation. As for the experimental part:
as §1
To determine an effect of styraxlignolide A on reduction in body weight in asthma-induced mice, body weight of each mouse prepared in Example 2 was measured. For statistical analyses for all measurements, means and standard errors (mean±S.E.) according to a number of variables were calculated, and comparison between each group was analyzed by performing a Mann-whitney U test using SPSS 10.0. Statically significance was accepted at p<0.05.
To determine an effect of homoegonol on reduction in body weight in asthma-induced mice, body weight of each mouse prepared in Example 2 was measured. For statistical analyses for all measurements, means and standard errors (mean±S.E.) according to a number of variables were calculated, and comparison between each group was analyzed by performing a Mann-whitney U test using SPSS 10.0. Statically significance was accepted at p<0.05.

The mark [13] stands for this setting: styraxlignolide A study, 3 mg/kg PO 1 hour prior to ovalbumin inhalation.
[14] abbreviates: homoegonol study, 3 mg/kg PO, 3 mg/kg.
Setting [15] is: homoegonol study, 3 mg/kg PO, bronchoalveolar lavage fluid, 3 mg/kg.

As for `C[C@@H]1C[C@H]2[C@@H]3CCC4=CC(=O)C=C[C@]4(C)[C@@]3(F)[C@@H](O)C[C@]2(C)[C@@]1(O)C(=O)CO` [DEXA, dexamethasone], the “Number of cells, Other inflammatory cells” value in data set [1] (homoegonol study, 3 mg/kg PO, bronchoalveolar lavage fluid) was 18.72 ± 2.2919 ×10^3 cells/mouse. In data set [1] (setting [13]), the “numbers of eosinophils in bronchoalveolar lavage fluid” value was determined as 41.88±9.08. The “Inflammatory index, peribronchiolar” value in data set [2] (setting [14]) was found to be 0.78±0.1315. For the same compound, the “Inflammatory index, perivascular” value in data set [2] (setting [14]) came out at 0.44±0.1571. In data set [2] (setting [13]), this compound gave a peribronchiolar inflammatory index of 1.46±0.26. For the same compound, the “Total IgE level in bronchoalveolar lavage fluid” value in [3] (bronchoalveolar lavage fluid) came to 24.3617 ± 4.8149 ng/mL. The “Total serum IgE level” value in data set [3] (serum, Table 2) was found to be 9.14 ± 2.0591 µg/mL. In addition, the “TGF-β1 concentrations in bronchoalveolar lavage fluid” value in [4] turned out to be 159.2813 ± 12.9548 pg/mL. In [5], the “serum ALT” value is 274.67±12.12 IU/L. Besides, the “serum AST” value in data set [5] is on record as 369.33±31.27 IU/L. The “area of a fibrosis stained region per 100 μm of a basement membrane perimeter” value in [6] is reported as 639.59±106.96 μm^2. For the same compound, the Penh values in data set [7] (methacholine 0 mg/ml) was found to be 0.4407 ± 0.0422; in [7] (methacholine 12.5 mg/ml), 0.7768 ± 0.1475; in data set [7] (methacholine 25 mg/ml), 0.8900 ± 0.1619; in [7] (methacholine 50 mg/ml) it was 1.1036 ± 0.4048. Moreover, in [8], the “IL-17 concentrations in bronchoalveolar lavage fluid” value is 48.8409 ± 4.3738 pg/mL. In addition, the “Number of cells, Eosinophils” value in data set [9] (setting [15]) is recorded as 1.32±0.49 ×10^3 cells/mouse. In addition, the “Number of cells, Total inflammatory cells” value in data set [9] (setting [15]) is given as 20.04±4.7744 ×10^3 cells/mouse. The “numbers of total inflammatory cells in bronchoalveolar lavage fluid” value in data set [9] (setting [13]) was determined as 153.48±19.69. In addition, the “ratio of goblet cells to bronchiolar epithelial cells” value in data set [10] is given as 34.96±6.86%. In addition, the “Goblet cells %/bronchial epithelial cell unit” value in data set [11] amounted to 18.7828±5.9397%. The body weight in data set [12] (homoegonol study) worked out at 19.98 ± 0.39 g; in data set [12] (styraxlignolide A study) it was 20.49 ± 0.29 g.

(Values after patent US8980846B2, “Composition containing styraxlignolide A or the aglycone thereof as an active ingredient for preventing or treating asthma” (Korea Research Institute of Bioscience and Biotechnology, priority 2010, dated 2015).)
